Blank lines part the entries; values can stand above or below the compound they belong to. Activity calls are given as the source filed them. No cut-off for these calls is given here.
Assays:
LNCaP = assay: Growth inhibition of human LNCAP cells incubated for 7 days by CellTiter-Glo assay; format: functional, cell-based
[1] = molecular target: T1, Olfactory receptor 51E2 (Homo sapiens) (UniProt Q9H255); assay: Agonist activity at PSGR/OR51E2 in human LNCaP cells assessed as induction of change in extracellular metabolites level by measuring tyramine level at 1 mM incubated for 72 hrs by GC/MS analysis; format: cell-based
T1 sequence (whole entry): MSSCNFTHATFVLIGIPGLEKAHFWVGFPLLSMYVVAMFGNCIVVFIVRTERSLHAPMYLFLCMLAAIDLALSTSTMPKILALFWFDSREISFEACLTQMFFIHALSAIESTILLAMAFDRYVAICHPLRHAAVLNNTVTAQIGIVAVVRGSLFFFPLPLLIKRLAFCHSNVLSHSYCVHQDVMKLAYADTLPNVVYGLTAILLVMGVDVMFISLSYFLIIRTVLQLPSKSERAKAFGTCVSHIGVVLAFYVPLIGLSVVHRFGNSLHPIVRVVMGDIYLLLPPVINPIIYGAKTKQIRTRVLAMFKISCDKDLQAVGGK

[2] = molecular target: T1, Olfactory receptor 51E2 (Homo sapiens); assay: Agonist activity at PSGR/OR51E2 in human LNCaP cells assessed as induction of change in extracellular metabolites level by measuring spermine level at 1 mM incubated for 72 hrs by GC/MS analysis; format: cell-based
[3] = molecular target: T1, Olfactory receptor 51E2 (Homo sapiens); assay: Agonist activity at PSGR/OR51E2 in human LNCaP cells assessed as induction of change in extracellular metabolites level by measuring lactose level at 1 mM incubated for 72 hrs by GC/MS analysis; format: cell-based
[4] = molecular target: T1, Olfactory receptor 51E2 (Homo sapiens); assay: Agonist activity at PSGR/OR51E2 in human LNCaP cells assessed as induction of change in extracellular metabolites level by measuring guanine level at 1 mM incubated for 72 hrs by GC/MS analysis; format: cell-based
[5] = molecular target: T1, Olfactory receptor 51E2 (Homo sapiens); assay: Agonist activity at PSGR/OR51E2 in human LNCaP cells assessed as induction of change in extracellular metabolites level by measuring spermidine level at 1 mM incubated for 72 hrs by GC/MS analysis; format: cell-based
[6] = molecular target: T1, Olfactory receptor 51E2 (Homo sapiens); assay: Agonist activity at PSGR/OR51E2 in human LNCaP cells assessed as induction of change in extracellular metabolites level by measuring glutamine level at 1 mM incubated for 72 hrs by GC/MS analysis; format: cell-based
[7] = molecular target: T1, Olfactory receptor 51E2 (Homo sapiens); assay: Agonist activity at PSGR/OR51E2 in human LNCaP cells assessed as induction of change in extracellular metabolites level by measuring ornithine level at 1 mM incubated for 72 hrs by GC/MS analysis; format: cell-based
[8] = molecular target: T1, Olfactory receptor 51E2 (Homo sapiens); assay: Agonist activity at PSGR/OR51E2 in human LNCaP cells assessed as induction of change in extracellular metabolites level by measuring threitol/erythritol level at 1 mM incubated for 72 hrs by GC/MS analysis; format: cell-based
[9] = molecular target: T1, Olfactory receptor 51E2 (Homo sapiens); assay: Agonist activity at PSGR/OR51E2 in human LNCaP cells assessed as induction of change in extracellular metabolites level by measuring lactic acid level at 1 mM incubated for 72 hrs by GC/MS analysis; format: cell-based
[10] = molecular target: T1, Olfactory receptor 51E2 (Homo sapiens); assay: Agonist activity at PSGR/OR51E2 in human LNCaP cells assessed as induction of change in extracellular metabolites level by measuring serine level at 1 mM incubated for 72 hrs by GC/MS analysis; format: cell-based
[11] = molecular target: T1, Olfactory receptor 51E2 (Homo sapiens); assay: Agonist activity at PSGR/OR51E2 in human LNCaP cells assessed as induction of change in extracellular metabolites level by measuring glycine level at 1 mM incubated for 72 hrs by GC/MS analysis; format: cell-based
[12] = molecular target: T1, Olfactory receptor 51E2 (Homo sapiens); assay: Agonist activity at PSGR/OR51E2 in human LNCaP cells assessed as induction of change in extracellular metabolites level by measuring threonine level at 1 mM incubated for 72 hrs by GC/MS analysis; format: cell-based
[13] = molecular target: T1, Olfactory receptor 51E2 (Homo sapiens); assay: Agonist activity at PSGR/OR51E2 in human LNCaP cells assessed as induction of change in extracellular metabolites level by measuring dehydro-alanine level at 1 mM incubated for 72 hrs by GC/MS analysis; format: cell-based
[14] = molecular target: T1, Olfactory receptor 51E2 (Homo sapiens); assay: Agonist activity at PSGR/OR51E2 in human LNCaP cells assessed as induction of change in extracellular metabolites level by measuring aspartic acid level at 1 mM incubated for 72 hrs by GC/MS analysis; format: cell-based
[15] = molecular target: T1, Olfactory receptor 51E2 (Homo sapiens); assay: Agonist activity at PSGR/OR51E2 in human LNCaP cells assessed as induction of change in extracellular metabolites level by measuring glutamic acid level at 1 mM incubated for 72 hrs by GC/MS analysis; format: cell-based
[16] = molecular target: T1, Olfactory receptor 51E2 (Homo sapiens); assay: Agonist activity at PSGR/OR51E2 in human LNCaP cells assessed as induction of change in intracellular metabolites level by measuring tyramine level at 1 mM incubated for 72 hrs by GC/MS analysis; format: cell-based
[17] = molecular target: T1, Olfactory receptor 51E2 (Homo sapiens); assay: Agonist activity at PSGR/OR51E2 in human LNCaP cells assessed as induction of change in intracellular metabolites level by measuring spermine level at 1 mM incubated for 72 hrs by GC/MS analysis; format: cell-based
[18] = molecular target: T1, Olfactory receptor 51E2 (Homo sapiens); assay: Agonist activity at PSGR/OR51E2 in human LNCaP cells assessed as induction of change in intracellular metabolites level by measuring lactose level at 1 mM incubated for 72 hrs by GC/MS analysis; format: cell-based
[19] = molecular target: T1, Olfactory receptor 51E2 (Homo sapiens); assay: Agonist activity at PSGR/OR51E2 in human LNCaP cells assessed as induction of change in intracellular metabolites level by measuring guanine level at 1 mM incubated for 72 hrs by GC/MS analysis; format: cell-based
[20] = molecular target: T1, Olfactory receptor 51E2 (Homo sapiens); assay: Agonist activity at PSGR/OR51E2 in human LNCaP cells assessed as induction of change in intracellular metabolites level by measuring spermidine level at 1 mM incubated for 72 hrs by GC/MS analysis; format: cell-based
[21] = molecular target: T1, Olfactory receptor 51E2 (Homo sapiens); assay: Agonist activity at PSGR/OR51E2 in human LNCaP cells assessed as induction of change in intracellular metabolites level by measuring glutamine level at 1 mM incubated for 72 hrs by GC/MS analysis; format: cell-based
[22] = molecular target: T1, Olfactory receptor 51E2 (Homo sapiens); assay: Agonist activity at PSGR/OR51E2 in human LNCaP cells assessed as induction of change in intracellular metabolites level by measuring ornithine level at 1 mM incubated for 72 hrs by GC/MS analysis; format: cell-based
[23] = molecular target: T1, Olfactory receptor 51E2 (Homo sapiens); assay: Agonist activity at PSGR/OR51E2 in human LNCaP cells assessed as induction of change in intracellular metabolites level by measuring threitol/erythritol level at 1 mM incubated for 72 hrs by GC/MS analysis; format: cell-based
[24] = molecular target: T1, Olfactory receptor 51E2 (Homo sapiens); assay: Agonist activity at PSGR/OR51E2 in human LNCaP cells assessed as induction of change in intracellular metabolites level by measuring lactic acid level at 1 mM incubated for 72 hrs by GC/MS analysis; format: cell-based
[25] = molecular target: T1, Olfactory receptor 51E2 (Homo sapiens); assay: Agonist activity at PSGR/OR51E2 in human LNCaP cells assessed as induction of change in intracellular metabolites level by measuring serine level at 1 mM incubated for 72 hrs by GC/MS analysis; format: cell-based
[26] = molecular target: T1, Olfactory receptor 51E2 (Homo sapiens); assay: Agonist activity at PSGR/OR51E2 in human LNCaP cells assessed as induction of change in intracellular metabolites level by measuring glycine level at 1 mM incubated for 72 hrs by GC/MS analysis; format: cell-based
[27] = molecular target: T1, Olfactory receptor 51E2 (Homo sapiens); assay: Agonist activity at PSGR/OR51E2 in human LNCaP cells assessed as induction of change in intracellular metabolites level by measuring threonine level at 1 mM incubated for 72 hrs by GC/MS analysis; format: cell-based
[28] = molecular target: T1, Olfactory receptor 51E2 (Homo sapiens); assay: Agonist activity at PSGR/OR51E2 in human LNCaP cells assessed as induction of change in intracellular metabolites level by measuring dehydro-alanine level at 1 mM incubated for 72 hrs by GC/MS analysis; format: cell-based
[29] = molecular target: T1, Olfactory receptor 51E2 (Homo sapiens); assay: Agonist activity at PSGR/OR51E2 in human LNCaP cells assessed as induction of change in intracellular metabolites level by measuring aspartic acid level at 1 mM incubated for 72 hrs by GC/MS analysis; format: cell-based
[30] = molecular target: T1, Olfactory receptor 51E2 (Homo sapiens); assay: Agonist activity at PSGR/OR51E2 in human LNCaP cells assessed as induction of change in intracellular metabolites level by measuring glutamic acid level at 1 mM incubated for 72 hrs by GC/MS analysis; format: cell-based

SMILES: CC1=C(/C=C/C(C)=C/C=C/C(C)=C\C(=O)O)C(C)(C)CCC1
growth inhibition (GI) (LNCaP): Active

Activity [1]: Active
Activity [2]: Active
Activity [3]: Active
Activity [4]: Active
Activity [5]: Active
Activity [6]: Active
Activity [7]: Active
Activity [8]: Active
Activity [9]: Active
Activity [10]: Active
Activity [11]: Active
Activity [12]: Active
Activity [13]: Active
Activity [14]: Active
Activity [15]: Active
Activity [16]: Active
Activity [17]: Active
Activity [18]: Active
Activity [19]: Active
Activity [20]: Active
Activity [21]: Active
Activity [22]: Active
Activity [23]: Active
Activity [24]: Active
Activity [25]: Active
Activity [26]: Active
Activity [27]: Active
Activity [28]: Active
Activity [29]: Active
Activity [30]: Active
SMILES: CCC(=O)O
